Values of other authors, collected in patent US5843995A, “Inhibition of HIV-1 replication using oligocarbamate derivatives” (University of Medicine and Dentistry of New Jersey, priority 1997, dated 1998).

Tested on: HIV-1
Conditions: cells pretreated with peptide 24 hours prior to infection

**Q.** With CC(=O)N[C@H](CCCNC(=N)N)C(=O)N[C@H](CCCNC(=N)N)C(=O)N[C@H](CCCNC(=N)N)C(=O)N[C@H](CCCNC(=N)N)C(=O)N[C@H](CCCNC(=N)N)C(=O)N[C@H](CCCNC(=N)N)C(=O)N[C@H](CCCNC(=N)N)C(=O)N[C@H](CCCNC(=N)N)C(=O)N[C@H](CCCNC(=N)N)C(N)=O [N-acetyl-(DArg)9 -NH2] as the compound, how does the “mechanism of antiviral activity” value read?
**A.** via inhibition of viral entry
